{"source": "patent US20140017701A1", "about": "“CHIMERIC PDK1 KINASES” (priority 2011, published 2014)", "key": {"[1]": {"target": "T1, GST-PDK1 1-556 with PIF-pocket mutated to mimic PKCz (Homo sapiens, UniProt O15530, F157L/I118V/I119H/L113V/R131K/T128Q/T148C/V124I)", "T1 construct": "a GST-PDK1 1-556 (full length, without the dm mutation); made in house; host or cells: HEK293 (general method for GST-fused kinases)", "T1 sequence (O15530 1-556 L113V/I118V/I119H/V124I/T128Q/R131K/T148C/F157L)": "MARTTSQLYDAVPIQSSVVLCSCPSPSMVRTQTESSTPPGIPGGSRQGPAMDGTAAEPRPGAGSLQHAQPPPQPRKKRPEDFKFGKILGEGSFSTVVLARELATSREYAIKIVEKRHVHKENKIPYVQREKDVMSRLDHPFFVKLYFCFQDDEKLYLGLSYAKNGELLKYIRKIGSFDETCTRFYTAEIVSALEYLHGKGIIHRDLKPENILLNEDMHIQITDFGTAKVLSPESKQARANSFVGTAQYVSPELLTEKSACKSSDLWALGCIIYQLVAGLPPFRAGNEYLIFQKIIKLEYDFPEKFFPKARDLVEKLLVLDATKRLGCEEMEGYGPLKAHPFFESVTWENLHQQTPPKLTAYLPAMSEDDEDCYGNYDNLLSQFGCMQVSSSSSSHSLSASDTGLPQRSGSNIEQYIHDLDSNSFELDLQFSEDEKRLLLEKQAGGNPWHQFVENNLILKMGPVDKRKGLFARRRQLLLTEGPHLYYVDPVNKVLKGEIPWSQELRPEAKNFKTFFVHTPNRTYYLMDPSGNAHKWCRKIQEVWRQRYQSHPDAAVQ", "assay": "Activity assay with full length GST-PDK1 1-556 mutated to mimic the PIF-pocket of PKCz", "format": "biochemical", "details": "without the dm mutation", "from_the_text": "Thus, non-mutated PDK1 50-359 protein and other constructs of PDK1 lacking the (dm) mutations, when mutated at the PIF-pocket to mimic the PIF-pocket of other AGC kinases, are also expected to transduce the conformational change similarly to the dmPDK1 50-359. […] The preferred construct for mutagenesis to create the chimeric proteins is dmPDK1 50-359. Also preferred is the use of PDK1 50-359 which can be produced in high quality for crystallization studies or other suitable constructs, for example PDK1 76-359 that corresponds to a sequence of aminoacids observed in the crystals of PDK1 in different crystal packings."}, "PDK1/PKCζ chimera": {"target": "T2, PDK1/PKCζ chimera (Homo sapiens, UniProt O15530, F157L/I118V/I119H/L113V/Q292A/R131K/T128Q/T148C/V124I/Y288G)", "T2 construct": "His (N); made in house; host or cells: insect cells", "T2 sequence (O15530 50-359 L113V/I118V/I119H/V124I/T128Q/R131K/T148C/F157L/Y288G/Q292A)": "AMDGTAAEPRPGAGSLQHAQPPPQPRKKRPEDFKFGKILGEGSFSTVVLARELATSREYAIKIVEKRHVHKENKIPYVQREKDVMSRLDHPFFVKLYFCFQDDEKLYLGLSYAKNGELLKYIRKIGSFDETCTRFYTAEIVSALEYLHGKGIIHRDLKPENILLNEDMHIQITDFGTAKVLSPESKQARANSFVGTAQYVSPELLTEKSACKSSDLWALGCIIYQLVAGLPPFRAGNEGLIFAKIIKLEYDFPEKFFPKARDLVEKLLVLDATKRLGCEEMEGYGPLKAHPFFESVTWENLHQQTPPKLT", "assay": "Activity assay with PDK1/PKCζ chimera", "format": "biochemical", "details": "PDK1 50-359/PKCζ chimera, PDK1[P-P-ζ]", "experimental": "The protein kinase activity assays were performed essentially as previously described (Engel, M. et al. Embo J 25, 5469-80 (2006)). The assays were done in a 96-well format and 4 μl aliquots spotted on P81 phospho-cellulose papers (Whatman) using epMotion 5070 (Eppendorf), washed in 0.01% phosphoric acid, dried, and then exposed and analyzed using PhosphoImager technology (FLA-9000 Starion, Fujifilm). Atypical PKC (aPKC) activity assays were performed in a total volume of 20 μl containing 50 mM Tris-HCl pH 7.5, 0.05 mg/ml BSA, 0.1% (v/v) 2-mercaptoethanol, 10 mM MgCl2, 100 μM [γ^32P]ATP (5-50 cpm/pmol), 0.003% Brij, 30-50 ng of aPKC, and MBP (10 μM) or PSRtide (100 μM) as the substrate. After 15 min pre-incubation, the kinase reaction was started by addition of 6 μl of an ATP-Mg mix. When required, lipid activator (LA) phosphatidylserine (100 ng) or PKC lipid activator mix (1×) was included in the pre-incubation. Low basal activity and consistent activation of 1-592 PKCζ and 498 PKCζ by LA was obtained when the pre-incubation time was started by addition of the whole mix on the enzyme.\nThe substrates were T308tide (200 μM) for PDK1, Kemptide (100 μM) for PKA, and Crosstide (100 μM) for SGK, PKB, S6K, and PRK2. The activity assays for PKCα, β, θ, and δ were performed in the presence of PKC lipid activator mix (1×) using 3 μM of histone H1 as substrate."}}, "data": [{"smiles": "Cl.O=C(O)CC(Cc1nc2cc(-c3ccccc3)ccc2[nH]1)c1ccc(Cl)cc1", "note": "(centres unmarked) [PS168]", "values": [{"measurement": "Effect on activity of GST-PDK1 1-556 mutated to mimic PIF-pocket of PKCz", "setting": "[1]", "result": "inhibited"}, {"measurement": "Effect on PDK1/PKCζ chimera activity", "setting": "PDK1/PKCζ chimera", "result": "inhibits"}]}]}
